# Patent US20240148874A1, “IMMUNOADJUVANT-BASED HYDROGEL COMPOSITION AND USE THEREOF” (SOOCHOW UNIVERSITY, priority 2020, published 2024)
# Experiments:
# Format in all cases: in vivo
# [1] = tested on: CT26 colon cancer tumor; assay: Immune response evaluation in chemotherapy sensitization, colon cancer subcutaneous tumor mouse model (Example 4); conditions: day 5 after treatment, CT26 BALB/c mice, compared with control group
# Description: The mice were treated on day 7 after the inoculation of CT26 colon cancer tumor. Tumor-bearing BALB/c mice were randomly divided into the following 4 groups (6 mice in each group): Group 1: control group (untreated); Group 2: intratumoral injection of sodium alginate and intravenous injection of oxaliplatin (OxPt); Group 3: intratumoral injection of smart sodium alginate hydrogel preparation (ALG-A-Apt/CpG) capable of ATP-responsive slow release of immunoadjuvant obtained in Step (5) of Example 2; Group 4: intratumoral injection of smart sodium alginate hydrogel preparation capable of ATP-responsive slow release of immunoadjuvant obtained in Step (5) of Example 2 and intravenous injection of oxaliplatin (ALG-A-Apt/CpG@OxPt). The final concentration of sodium alginate in each treatment group was 10 mg/mL, the volume of intratumoral injection was 25 μL, and the dose of CpG-ODN per mouse was 15 μg. On days 7, 10, 13 and 16, oxaliplatin was administered intravenously at a dose of 3 mg/kg body weight. On day 5 after the treatment, mice in each group were sacrificed, and the maturity of dendritic cells in inguinal lymph nodes, percentage of CD8 positive T cells in the tumor, and ratio of CD8 positive T cells to regulatory T cells was identified.
# [2] = tested on: CT26 colon cancer tumor; assay: Chemotherapy sensitization with smart hydrogel in colon cancer subcutaneous tumor mouse model (Example 3); conditions: CT26 tumor-bearing BALB/c mice, compared with control group; CpG-ODN 15 μg per mouse intratumoral; oxaliplatin 3 mg/kg i.v. days 7, 10, 13, 16
# Description: The mice were treated on day 7 after the inoculation of CT26 colon cancer tumor. Tumor-bearing BALB/c mice were randomly divided into the following 6 groups (6 mice in each group): Group 1: control group (untreated); Group 2: intratumoral injection of sodium alginate and intravenous injection of oxaliplatin (ALG+OxPt); Group 3: intratumoral injection of mixture of sodium alginate with CpG-ODN (ALG/CpG); Group 4: intratumoral injection of mixture of sodium alginate and CpG-ODN and intravenous injection of oxaliplatin (ALG/CpG+OxPt); Group 5: intratumoral injection of smart sodium alginate hydrogel preparation (ALG-Aapt/CpG) capable of ATP-responsive slow release of immunoadjuvant obtained in Step (5) of Example 2; Group 6: intratumoral injection of smart sodium alginate hydrogel preparation capable of ATP-responsive slow release of immunoadjuvant obtained in Step (5) of Example 2, and intravenous injection of oxaliplatin (ALG-Aapt/CpG+OxPt). The final concentration of sodium alginate in each treatment group was 10 mg/mL, the volume of intratumoral injection was 25 μL, and the dose of CpG-ODN per mouse was 15 μg. On days 7, 10, 13 and 16, oxaliplatin was administered intravenously at a dose of 3 mg/kg body weight. After respective treatments for the mice, the tumor growth was measured.
# [3] = tested on: CT26 colon cancer tumor; assay: Chemotherapy sensitization in mouse colon cancer subcutaneous tumor model (Example 1); conditions: CT26 tumor-bearing BALB/c mice, compared with control group; intratumoral 25 μL, CpG-ODN 15 μg per mouse; oxaliplatin 3 mg/kg i.v. days 7, 10, 13, 16
# From the text: The sodium alginate hydrogel radiotherapy/chemotherapy sensitizing agent encapsulating the immunoadjuvant CpG-ODN was used for chemotherapy sensitization in a mouse colon cancer subcutaneous tumor model. The treatment was started on day 7 after inoculation of the mouse CT26 colon cancer tumor. Tumor-bearing BALB/c mice were randomly divided into the following 4 groups (6 mice in each group): Group 1: control group (untreated); Group 2: intratumoral injection of sodium alginate and intravenous injection of oxaliplatin (ALG+OxPt);
# Group 3: intratumoral injection of sodium alginate hydrogel radiotherapy/chemotherapy sensitizing agent encapsulating the immunoadjuvant CpG-ODN (ALG/CpG); Group 4: intratumoral injection of sodium alginate hydrogel radiotherapy/chemotherapy sensitizing agent encapsulating the immunoadjuvant CpG-ODN, and intravenous injection of oxaliplatin (ALG/CpG+OxPt). The final concentration of sodium alginate in each treatment group was 10 mg/mL, the volume of intratumoral injection was 25 μL, and the dose of CpG-ODN per mouse was 15 μg. On days 7, 10, 13 and 16, oxaliplatin was administered intravenously at a dose of 3 mg/kg body weight. After respective treatments for the mice, the tumor growth was measured.
substance,measurement,setting,value
oxaliplatin [ALG+OxPt],percentage of CD8 positive T cells in the tumor,[1],not significantly improved
same,ratio of CD8 positive T cells to regulatory T cells,[1],not significantly improved
same,maturity of dendritic cells (DC) in lymph nodes,[1]; inguinal lymph nodes,not significantly improved
same,tumor growth,[2],only partially inhibited
same,tumor growth,[3],significantly inhibited
